Results published in paper PMC7317212 (Chemmedchem, 2020).

Columns and labels:
[1] = biological target: T1, mGAT1 (Mus musculus, UniProt P31648); test: MS Binding Assay with NO711 as native MS marker; details: for remaining activity at 100 µM: in presence of 100 μM compound, read-out: remaining specific NO711 binding (mGAT1)
T1 construct: expressed in transfected cells; host or cells: HEK293
Protocol: (§1) For compounds with pIC50 ([^3H]GABA uptake assay) or pK i (MS Binding Assays) values close to or above 5.0, these experiments were repeated twice and SEM have been calculated.
MS Binding Assays: The MS Binding Assays were performed with mGAT1 membrane preparations obtained from a stably mGAT1 expressing HEK293 cell line and NO711 as unlabeled marker in competitive binding experiments as previously described in detail.34 In short, test compounds were investigated at 7 concentrations in presence of 10 nM NO 711 in competition experiments. Non specific binding was defined as binding remaining in the presence of 100 mM GABA. Incubation was terminated by transfer of 200 μL per well onto a 96‐well filter plate (Acroprep, glass fibre, 1.0 μm, 350 μL, Pall, Dreieich, Germany) with a 12 channel pipette. After rapid vacuum‐filtration the filters were washed with ice cold 0.9 % NaCl (5×150 μL) and dried at 50 °C for 60 min. Afterwards, the filters were eluted with 100 μL methanol containing [^2H10]NO711 (1.4 nM) as internal standard per well into a deep‐well plate by application of vacuum. This step was repeated twice resulting in a total elution volume of 300 μL. Finally, a volume of 130 μL ammonium formate buffer (10 mM, pH 7.0) was added per well and the generated samples analyzed by LC‐ESI‐MS/MS using a API 3200 as described in detail previously.40

[2] = biological target: T1, mGAT1; test: [^3H]GABA uptake assay, HEK293 cells expressing mGAT1; format: cell-based; details: HEK293; in presence of 100 μM compound
Protocol: as §1
(§2) [^3H]GABA uptake assays: The [^3H]GABA uptake assays were performed according to Kragler et al.33 Cells were grown in 150 cm^2 plates to a confluence of 70–90 % up to passage 25. After detachment the cells were centrifuged 5 min at 500×g, washed for three times in phosphate buffered saline and, finally, resuspended in Krebs buffer (2.5 mM CaCl2, 1.2 mM MgSO4, 1.2 mM KH2PO4, 4.7 mM KCl, 11 mM glucose, 25 mM Tris, 119 mM NaCl, pH 7.2). The uptake assays were performed with aliquots of the resulting cell suspension (about 100000–200000 cells per well) in a total volume of 250 μl in 96 well 2.2 mL deep well plates. The cells were equilibrated for 25 min in Krebs buffer in the presence of the test compound at 37 °C in a gently shaking water bath. […] After addition of 25 μl of a solution containing [^3H]GABA (2.22 TBq/mmol, ARC, St Louis, MO, USA) and unlabeled GABA in Krebs (final concentration 8 nM [^3H]GABA and 32 nM unlabeled GABA for mGAT1, mGAT3, mGAT4 and 20 nM [^3H]GABA and 20 nM unlabeled GABA for mGAT2) the cells were incubated for further 4 min (mGAT1, mGAT3, mGAT4) or 10 minutes (mGAT2), respectively. The incubation was stopped by filtration through Sartorius MGC micro glass fiber filters pre‐soaked for 1 h in 0.9 % NaCl by means of a Brandell MWXR‐96TI cell harvester (Brandell, Gaithersburg, MD, USA) under reduced pressure. The filters were rinsed two times with cold 0.9 % NaCl and subsequently transferred to 96 well sample plates (Perkin Elmer LAS, Boston, MA, USA). After addition of 200 μl Rotiszint Eco Plus (Roth, Karlsruhe, Germany) per well the radioactivity was determined in a microbeta liquid scintillation counter (Perkin Elmer LAS, Boston, MA, USA). Non‐specific uptake was determined in presence of 10 mM GABA for mGAT1, mGAT3 and mGAT4 or 100 mM GABA for mGAT2, respectively. The results are expressed as means±S.E.M. of at least three separate experiments, each carried out in triplicate.

[3] = biological target: T2, mGAT2 (Mus musculus, UniProt P31651); test: [^3H]GABA uptake assay, HEK293 cells expressing mGAT2; format: cell-based; details: for remaining activity at 100 µM: HEK293, in presence of 100 μM compound
T2 construct: expressed in transfected cells; host or cells: HEK293
T2 sequence (P31651 1-614): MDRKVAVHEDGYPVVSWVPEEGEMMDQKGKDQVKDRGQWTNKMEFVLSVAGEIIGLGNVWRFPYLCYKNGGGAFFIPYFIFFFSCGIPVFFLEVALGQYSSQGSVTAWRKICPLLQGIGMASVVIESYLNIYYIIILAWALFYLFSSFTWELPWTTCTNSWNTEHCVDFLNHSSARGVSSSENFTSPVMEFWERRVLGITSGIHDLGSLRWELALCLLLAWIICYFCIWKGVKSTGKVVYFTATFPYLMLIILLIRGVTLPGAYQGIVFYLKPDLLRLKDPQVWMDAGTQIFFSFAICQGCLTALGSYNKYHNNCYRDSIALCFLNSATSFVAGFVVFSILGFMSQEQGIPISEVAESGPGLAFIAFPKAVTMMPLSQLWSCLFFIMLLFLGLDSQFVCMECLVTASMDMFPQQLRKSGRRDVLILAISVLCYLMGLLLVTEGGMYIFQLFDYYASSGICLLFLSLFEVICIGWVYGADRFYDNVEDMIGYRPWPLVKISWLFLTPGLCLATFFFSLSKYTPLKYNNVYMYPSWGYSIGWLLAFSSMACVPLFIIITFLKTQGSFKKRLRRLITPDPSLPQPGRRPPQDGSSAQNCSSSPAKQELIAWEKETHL
Protocol: as §1, §2

[4] = biological target: T3, mGAT3 (Mus musculus, UniProt P31649); test: [^3H]GABA uptake assay, HEK293 cells expressing mGAT3; format: cell-based; details: for remaining activity at 100 µM: HEK293, in presence of 100 μM compound; for IC50: [^3H]GABA uptake, pIC50±SEM
T3 construct: expressed in transfected cells; host or cells: HEK293
T3 sequence (P31649 1-602): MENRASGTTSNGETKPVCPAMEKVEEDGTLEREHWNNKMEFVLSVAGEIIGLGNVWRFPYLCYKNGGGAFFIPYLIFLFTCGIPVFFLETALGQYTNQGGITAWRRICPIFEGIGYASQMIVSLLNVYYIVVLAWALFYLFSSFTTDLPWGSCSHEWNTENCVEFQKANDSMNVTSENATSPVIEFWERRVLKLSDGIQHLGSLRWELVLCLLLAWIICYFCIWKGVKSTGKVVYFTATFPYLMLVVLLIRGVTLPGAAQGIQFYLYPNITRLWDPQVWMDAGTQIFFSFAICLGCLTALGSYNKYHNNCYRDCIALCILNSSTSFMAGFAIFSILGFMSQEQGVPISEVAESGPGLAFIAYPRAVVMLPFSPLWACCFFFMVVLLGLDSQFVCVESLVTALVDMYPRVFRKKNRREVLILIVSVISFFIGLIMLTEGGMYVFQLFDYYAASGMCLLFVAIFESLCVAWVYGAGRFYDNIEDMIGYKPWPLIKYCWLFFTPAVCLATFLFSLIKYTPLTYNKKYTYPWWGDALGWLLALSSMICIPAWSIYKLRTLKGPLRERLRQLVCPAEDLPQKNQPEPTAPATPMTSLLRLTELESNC
Protocol: as §1, §2

[5] = biological target: T4, mGAT4 (Mus musculus, UniProt P31650); test: [^3H]GABA uptake assay, HEK293 cells expressing mGAT4; format: cell-based; details: for remaining activity at 100 µM: HEK293, in presence of 100 μM compound; for IC50: [^3H]GABA uptake, pIC50±SEM
T4 construct: expressed in transfected cells; host or cells: HEK293
T4 sequence (P31650 1-627): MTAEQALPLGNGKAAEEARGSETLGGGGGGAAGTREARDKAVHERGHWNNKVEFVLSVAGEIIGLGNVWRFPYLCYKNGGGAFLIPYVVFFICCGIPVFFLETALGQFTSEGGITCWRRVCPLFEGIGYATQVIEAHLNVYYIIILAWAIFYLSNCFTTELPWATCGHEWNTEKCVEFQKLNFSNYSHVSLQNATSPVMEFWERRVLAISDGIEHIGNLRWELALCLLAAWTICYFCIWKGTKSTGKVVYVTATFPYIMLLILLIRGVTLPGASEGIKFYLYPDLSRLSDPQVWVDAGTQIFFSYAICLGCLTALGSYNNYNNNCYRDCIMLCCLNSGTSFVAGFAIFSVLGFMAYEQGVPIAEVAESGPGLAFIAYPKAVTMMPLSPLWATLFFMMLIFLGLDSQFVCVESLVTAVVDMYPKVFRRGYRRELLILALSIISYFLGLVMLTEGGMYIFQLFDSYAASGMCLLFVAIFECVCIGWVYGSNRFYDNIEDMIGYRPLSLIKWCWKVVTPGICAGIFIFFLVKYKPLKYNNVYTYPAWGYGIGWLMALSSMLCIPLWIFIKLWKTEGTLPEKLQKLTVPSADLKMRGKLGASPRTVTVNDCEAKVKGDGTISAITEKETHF
Protocol: as §1, §2

SMILES	remaining activity at 100 µM [1] [%]	remaining activity at 100 µM [2] [%]	remaining activity at 100 µM [3] [%]	remaining activity at 100 µM [4] [%]	remaining activity at 100 µM [5] [%]	Ki ([1]; MS Binding Assay, NO711 marker, pKi±SEM, read-out: pK i mGAT1 (converted)) [µM]	IC50 [5] [µM]	IC50 [4] [µM]	IC50 ([3]; [^3H]GABA uptake, pIC50±SEM) [µM]
COc1ccc(C(OCCN2CCCC(C(=O)O)C2)(C(=O)O)c2ccc(OC)cc2)cc1 (racemic) [5 k, rac ‐1‐{2‐[Carboxybis(4‐methoxyphenyl)methoxy]ethyl}piperidine‐3‐carboxylic acid]	96.9	100	101	94	96.5				
COc1ccc(C(O)(CCCN2CCCC(C(=O)O)C2)c2ccc(OC)cc2)cc1 (racemic) [5 l, rac ‐1‐[4‐Hydroxy‐4,4‐bis(4‐methoxyphenyl)butyl]piperidine‐3‐carboxylic acid]		69.5	62.5	80.7	92	32.4			
COc1ccc(C(OCCN2CCCC(C(=O)O)C2)(c2ccc(CO)cc2)c2ccc(OC)cc2)cc1 (racemic) [5 m, rac‐1‐(2‐{[4‐(Hydroxymethyl)phenyl]bis[4‐methoxyphenyl]methoxy}‐ethyl)piperidine‐3‐carboxylic acid]	55	78.1	91.6	58.7			12.6		
COc1ccc(C(OCCN2CCCC(C(=O)O)C2)(c2ccc(CNCC(=O)O)cc2)c2ccc(OC)cc2)cc1 (racemic) [5 n, rac‐ 1‐{2‐[(4‐{[(Carboxymethyl)amino]methyl}phenyl)bis(4‐methoxy‐phenyl)methoxy]ethyl}piperidine‐3‐carboxylic acid]	86.2	81.8	96.1	90.9	72.2				
COc1ccc(C(OCCN2CCCC(C(=O)O)C2)(c2ccc(CNCCC(=O)O)cc2)c2ccc(OC)cc2)cc1 (racemic) [5 o, rac‐ 1‐{2‐[(4‐{[(2‐Carboxyethyl)amino]methyl}phenyl)bis(4‐methoxy‐phenyl)methoxy]ethyl}piperidine‐3‐carboxylic acid]	82.3	94.4	69.5	89.1	56.3				
COc1ccc(C(OCCN2CCCC(C(=O)O)C2)(c2ccc(CNC3(C(=O)O)CC3)cc2)c2ccc(OC)cc2)cc1 (racemic) [5 p, rac‐ 1‐{2‐[(4‐{[(1‐Carboxycyclopropyl)amino]methyl}phenyl)bis(4‐methoxyphenyl)methoxy]ethyl}piperidine‐3‐carboxylic acid]	58.8	78.2	76	69.1			13.2		
COc1ccc(C(OCCN2CCCC(C(=O)O)C2)(c2ccc(CNC(C)(C)C(=O)O)cc2)c2ccc(OC)cc2)cc1 (racemic) [5 q, rac ‐1‐{2‐[(4‐{[(2‐Carboxypropan‐2‐yl)amino]methyl}phenyl)bis(4‐methoxyphenyl)methoxy]ethyl}piperidine‐3‐carboxylic acid]	77	80.7	77	61.1			45.7		
COc1ccc(C(OCCN2CCCC(C(=O)O)C2)(c2ccc(CN3CCCC3=O)cc2)c2ccc(OC)cc2)cc1 (racemic) [5 r, rac‐ 1‐[2‐(Bis{4‐methoxyphenyl}{4‐[(2‐oxopyrrolidin‐1‐yl)methyl]phenyl}‐methoxy)ethyl]piperidine‐3‐carboxylic acid]	97	76	79.7	64.2			64.6		
COc1ccc(C(OCCN2CCCC(C(=O)O)C2)(c2ccc(CNCCCC(=O)O)cc2)c2ccc(OC)cc2)cc1 (racemic) [5 s, rac ‐1‐{2‐[(4‐{[(3‐Carboxypropyl)amino]methyl}phenyl)bis(4‐methoxy‐phenyl)methoxy]ethyl}piperidine‐3‐carboxylic acid]	86.5	48.5	51.5				74.1	46.8	
CCOC(=O)C1CCCN(CCOC(c2ccc(C=O)cc2)(c2ccc(OC)cc2)c2ccc(OC)cc2)C1 (racemic) [12 a, rac‐ Ethyl 1‐{2‐[(4‐formylphenyl)bis(4‐methoxyphenyl)methoxy]ethyl}‐piperidine‐3‐carboxylate]	85.4	55.5			55.9			12.6	26.9
